Results as given in US20070128217A1 (priority 2003, published 2007).

Experiments:
[1] = system: antibodies in sera from SARS patients (sera 1a, 1b, 2, 6, 37, 62, London, SARS-yellow, SARS-green); type: binding, human; parameters: Binding of serum 6 to linear peptides of protein X1 of SARS-CoV Urbani / Binding of serum 37 to linear peptides of protein X1 of SARS-CoV Urbani / Binding of serum 6 to looped/cyclic peptide (PEPSCAN-ELISA) / Binding of serum 37 to looped/cyclic peptide (PEPSCAN-ELISA) / Binding of serum 37 to looped/cyclic peptides of protein X1 of SARS-CoV Urbani / Binding of serum 6 to linear peptides of protein X2 / Binding of serum 37 to linear peptides of protein X2 / Binding of serum 37 to looped/cyclic peptides of protein X2 of SARS-CoV Urbani / Binding of serum 6 to linear peptides of protein M of SARS-CoV Urbani / Binding of serum 37 to linear peptides of protein M of SARS-CoV Urbani / Binding of serum 6 to looped/cyclic peptides of protein M of SARS-CoV Urbani / Binding of serum 37 to looped/cyclic peptides of protein M of SARS-CoV Urbani / Binding of serum 6 to linear peptides of protein X3 of SARS-CoV Urbani / Binding of serum 37 to linear peptides of protein X3 of SARS-CoV Urbani / Binding of serum 37 to looped/cyclic peptides of protein X3 of SARS-CoV Urbani / Binding of serum 6 to linear peptides of protein X4 of SARS-CoV Urbani / Binding of serum 37 to linear peptides of protein X4 of SARS-CoV Urbani / Binding of serum 37 to looped/cyclic peptides of protein X4 of SARS-CoV Urbani / Binding of serum 6 to linear peptides of protein X5 of SARS-CoV Urbani / Binding of serum 37 to linear peptides of protein X5 of SARS-CoV Urbani / Binding of serum 37 to looped/cyclic peptides of protein X5 of SARS-CoV Urbani / Binding of serum 6 to linear peptides of protein N of SARS-CoV Urbani / Binding of serum 37 to linear peptides of protein N of SARS-CoV Urbani / Binding of serum 6 to linear peptide (PEPSCAN-ELISA) / Binding of serum 1a to looped/cyclic peptides of protein N of SARS-CoV Urbani / Binding of serum 1b to looped/cyclic peptides of protein N of SARS-CoV Urbani / Binding of serum 2 to looped/cyclic peptides of protein N of SARS-CoV Urbani / Binding of serum 6 to looped/cyclic peptides of protein N of SARS-CoV Urbani / Binding of serum 37 to looped/cyclic peptides of protein N of SARS-CoV Urbani / Binding of serum 62 to looped/cyclic peptides of protein N of SARS-CoV Urbani / Binding of serum London to looped/cyclic peptides of protein N of SARS-CoV Urbani / Binding of serum SARS-green to looped/cyclic peptides of protein N of SARS-CoV Urbani: unit not given here
[2] = system: control sera (pooled serum of ten healthy LUMC hospital workers; commercial negative donor pooled serum from the Dutch bloodbank); type: binding, human; parameters: Binding of Control serum LUMC to linear peptides / Binding of Control serum Blood-bank to linear peptides / Binding of Control serum LUMC to looped peptides / Binding of Control Serum Blood-Bank to Looped peptides / Binding of Control serum LUMC to linear peptides of the protein M of SARS-CoV Urbani / Binding of Control serum Blood-bank to linear peptides of the protein M of SARS-CoV Urbani / Binding of Control serum LUMC to looped peptides of the protein M of SARS-CoV Urbani / Binding of Control Serum Blood-Bank to Looped peptides of the protein M of SARS-CoV Urbani: unit not given here
[3] = system: rabbit serum obtained by immunizing a rabbit with the SARS-CoV strain Frankfurt 1; type: binding; parameters: Binding of a rabbit serum to linear peptides / Binding of a rabbit serum to looped peptides / Rabbit serum linear peptides / Rabbit serum looped peptides / Binding of a rabbit serum to linear peptides of protein N of SARS-CoV Urbani (Rabbit serum linear peptides) / Binding of a rabbit serum to looped/cyclic peptides of protein N of SARS-CoV Urbani (Rabbit serum looped peptides): unit not given here

ALVFLILCFTIKRKT
0.4: Binding of serum SARS-yellow to linear peptides of protein X4 of SARS-CoV Urbani [1]
0.7: Binding of serum 1a to linear peptides of protein X4 of SARS-CoV Urbani [1] | Binding of serum 2 to linear peptides of protein X4 of SARS-CoV Urbani [1] | Binding of serum 6 to linear peptides of protein X4 of SARS-CoV Urbani [1] | Binding of serum 37 to linear peptides of protein X4 of SARS-CoV Urbani [1] | Binding of serum 62 to looped/cyclic peptides of protein X4 of SARS-CoV Urbani [1] | Binding of serum SARS-green to linear peptides of protein X4 of SARS-CoV Urbani [1] | Binding of Control serum LUMC to looped peptides [2]
1.1: Binding of serum London to looped/cyclic peptides of protein X4 of SARS-CoV Urbani [1]
0.8: Binding of serum 1a to looped/cyclic peptides of protein X4 of SARS-CoV Urbani [1] | Binding of serum 2 to looped/cyclic peptides of protein X4 of SARS-CoV Urbani [1] | Binding of serum 62 to linear peptides of protein X4 of SARS-CoV Urbani [1] | Binding of serum London to linear peptides of protein X4 of SARS-CoV Urbani [1] | Binding of Control Serum Blood-Bank to Looped peptides [2] | Binding of Control serum Blood-bank to linear peptides [2]
0.9: Binding of serum 6 to looped/cyclic peptides of protein X4 of SARS-CoV Urbani [1]
0.5: Binding of serum 1b to looped/cyclic peptides of protein X4 of SARS-CoV Urbani [1] | Binding of serum SARS-green to looped/cyclic peptides of protein X4 of SARS-CoV Urbani [1]
0.6: Binding of serum 1b to linear peptides of protein X4 of SARS-CoV Urbani [1] | Binding of serum 37 to looped/cyclic peptides of protein X4 of SARS-CoV Urbani [1] | Binding of serum SARS-yellow to looped/cyclic peptides of protein X4 of SARS-CoV Urbani [1] | Binding of Control serum LUMC to linear peptides [2] | Rabbit serum linear peptides [3] | Rabbit serum looped peptides [3]

AMACIVGLMWLSYFV
0.5: Binding of serum 1b to linear peptides of protein M of SARS-CoV Urbani [1] | Binding of serum 62 to looped/cyclic peptides of protein M of SARS-CoV Urbani [1]
0.2: Binding of serum London to looped/cyclic peptides of protein M of SARS-CoV Urbani [1] | Binding of serum SARS-green to linear peptides of protein M of SARS-CoV Urbani [1]
0.3: Binding of Control serum LUMC to linear peptides of the protein M of SARS-CoV Urbani [2]
0.4: Binding of serum 6 to linear peptides of protein M of SARS-CoV Urbani [1] | Binding of serum London to linear peptides of protein M of SARS-CoV Urbani [1] | Binding of serum SARS-green to looped/cyclic peptides of protein M of SARS-CoV Urbani [1] | Rabbit serum linear peptides [3]
0.1: Binding of serum SARS-yellow to linear peptides of protein M of SARS-CoV Urbani [1] | Rabbit serum looped peptides [3]
0.6: Binding of serum 2 to linear peptides of protein M of SARS-CoV Urbani [1] | Binding of serum 2 to looped/cyclic peptides of protein M of SARS-CoV Urbani [1] | Binding of serum 37 to linear peptides of protein M of SARS-CoV Urbani [1] | Binding of serum 37 to looped/cyclic peptides of protein M of SARS-CoV Urbani [1] | Binding of serum 62 to linear peptides of protein M of SARS-CoV Urbani [1] | Binding of serum SARS-yellow to looped/cyclic peptides of protein M of SARS-CoV Urbani [1] | Binding of Control Serum Blood-Bank to Looped peptides of the protein M of SARS-CoV Urbani [2] | Binding of Control serum Blood-bank to linear peptides of the protein M of SARS-CoV Urbani [2]
0.7: Binding of serum 1a to linear peptides of protein M of SARS-CoV Urbani [1] | Binding of serum 1a to looped/cyclic peptides of protein M of SARS-CoV Urbani [1] | Binding of serum 1b to looped/cyclic peptides of protein M of SARS-CoV Urbani [1] | Binding of Control serum LUMC to looped peptides of the protein M of SARS-CoV Urbani [2]
0.9: Binding of serum 6 to looped/cyclic peptides of protein M of SARS-CoV Urbani [1]

AQFLYLYALIYFLQC
0.3: Binding of serum 1b to looped/cyclic peptide (PEPSCAN-ELISA) [1] | Binding of serum 6 to linear peptides of protein X1 of SARS-CoV Urbani [1] | Binding of serum SARS-green to looped/cyclic peptide (PEPSCAN-ELISA) [1] | Binding of serum SARS-yellow to looped/cyclic peptide (PEPSCAN-ELISA) [1]
0.5: Binding of serum 1a to looped/cyclic peptide (PEPSCAN-ELISA) [1] | Binding of serum 1b to linear peptides of protein X1 of SARS-CoV Urbani [1] | Binding of serum 2 to linear peptides of protein X1 of SARS-CoV Urbani [1] | Binding of serum 62 to looped/cyclic peptide (PEPSCAN-ELISA) [1] | Binding of Control serum LUMC to linear peptides [2] | Binding of Control serum LUMC to looped peptides [2] | Binding of a rabbit serum to looped peptides [3]
0.2: Binding of serum 6 to looped/cyclic peptide (PEPSCAN-ELISA) [1] | Binding of serum London to linear peptides of protein X1 of SARS-CoV Urbani [1] | Binding of serum London to looped/cyclic peptide (PEPSCAN-ELISA) [1] | Binding of serum SARS-green to linear peptides of protein X1 of SARS-CoV Urbani [1] | Binding of a rabbit serum to linear peptides [3]
0.4: Binding of serum 2 to looped/cyclic peptide (PEPSCAN-ELISA) [1] | Binding of serum 37 to looped/cyclic peptide (PEPSCAN-ELISA) [1] | Binding of serum 62 to linear peptides of protein X1 of SARS-CoV Urbani [1] | Binding of serum SARS-yellow to linear peptides of protein X1 of SARS-CoV Urbani [1] | Binding of Control Serum Blood-Bank to Looped peptides [2] | Binding of Control serum Blood-bank to linear peptides [2]
0.6: Binding of serum 1a to linear peptides of protein X1 of SARS-CoV Urbani [1] | Binding of serum 37 to linear peptides of protein X1 of SARS-CoV Urbani [1]
